A short description of assay [1]: Modulation of GP6 in human platelets assessed as reduction in convulxin-induced platelet aggregation.
A short description of assay [2]: Modulation of GP6 in human platelets reduction in collagen-induced platelet aggregation preincubated for 20 mins followed by collagen stimulation.
A short description of assay [3]: Inhibition of GP6 in human whole blood assessed as protein-mediated platelet aggregation preincubated for 15 mins followed by collagen stimulation and measured for 10 mins by multiple electrode aggregometry.
Another assay deals with T1, Platelet glycoprotein VI (Homo sapiens, UniProt Q9HCN6).
T1 sequence (Q9HCN6 whole entry): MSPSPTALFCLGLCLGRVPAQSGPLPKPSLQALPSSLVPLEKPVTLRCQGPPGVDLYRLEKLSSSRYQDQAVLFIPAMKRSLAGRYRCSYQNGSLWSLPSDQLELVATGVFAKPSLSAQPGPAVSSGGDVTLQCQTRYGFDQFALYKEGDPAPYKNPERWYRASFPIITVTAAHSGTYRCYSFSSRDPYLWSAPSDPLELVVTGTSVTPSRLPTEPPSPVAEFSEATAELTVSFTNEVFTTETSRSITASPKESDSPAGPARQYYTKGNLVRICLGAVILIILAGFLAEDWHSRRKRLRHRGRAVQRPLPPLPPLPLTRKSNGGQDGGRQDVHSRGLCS
In words: Inhibition of GP6 in human whole blood assessed as protein-mediated platelet aggregation preincubated for 15 mins followed by collagen stimulation and measured for 10 mins by multiple electrode aggregometry.

Assay [4] in a line: Antagonist activity at GP6 in human platelet assessed as reduction in CRP-induced platelet-aggregation preincubated for 10 mins followed by collagen stimulation by aggregometry.
A short description of assay [5]: Antagonist activity at GP6 in human platelet assessed as reduction in collagen-induced platelet-aggregation preincubated for 10 mins followed by collagen stimulation by aggregometry.

Usually IC50 stands for the concentration needed to halve the response being measured.

Regarding `Cc1cccc(Nc2nc(N[C@@H]3CCCC[C@@H]3N)ncc2C(N)=O)c1`, the concentration for half-maximal inhibition (IC50) in assay [1] worked out at 31 nM; in assay [2], 570 nM.
`C=CC(=O)N1CCC([C@@H]2CCNc3c(C(N)=O)c(-c4ccc(Oc5ccccc5)cc4)nn32)CC1` (single isomer, unassigned) [US9447106, 27b (peak 2)]: in assay [3], the IC50 was 510 nM.
Take `C/C=C/C(=O)N1CCC[C@H]1c1nc(-c2ccc(C(=O)Nc3ccccn3)cc2)c2c(N)nccn12` [ACP-196]: the IC50 at Platelet glycoprotein VI turned out to be 1210 nM.
With `C=C1C(=O)[C@@]23[C@H](O)C[C@@H]4C(C)(C)C(=O)CC[C@@]4(C)[C@@H]2CC[C@@H]1[C@H]3O` [Glaucocalyxin A], the IC50 is 2 nM in assay [4] and 21 nM in assay [5].
As for `C=CC(=O)N1CCC[C@@H](n2nc(-c3ccc(Oc4ccccc4)cc3)c3c(N)ncnc32)C1` [IBRUTINIB], the 50% inhibitory concentration (IC50) in assay [3] was 120 nM.
Same read-out and setting: to `CC#CC(=O)N1CC[C@@H](n2c(=O)n(-c3ccc(Oc4ccccc4)cc3)c3c(N)ncnc32)C1` [US9199997, 9] belongs 1200 nM; to `C=CC(=O)N1CCC(CNc2ncnc(N)c2-c2ccc(Oc3ccccc3)cc2)CC1` [US9580449, Example A39], 5840 nM.

The values are drawn from BindingDB's records for doi:10.1021/acs.jmedchem.0c00262 (University of Leeds, 2020).
